Columns and labels:
late watergrass = experiment: Test Example 1: herbicidal activity, application before weed generation under submerged conditions (Table 16, symbol A); type: in vivo, late watergrass (Echinochloa oryzicola); conditions: 320 g/ha applied herbicide
In short: (§1)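 Emulsion formulation, water-diluted to set dose, was put onto the flooded surface (4 cm depth, alluvial soil) the same day weeds were sown and 2.5-leaf rice transplanted. After 3 weeks at 25-30 °C under glass, each species was rated 0 (≤5% kill) to 5 (≥90% kill).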

Japanese bulrush = experiment: Test Example 1: herbicidal activity, application before weed generation under submerged conditions (Table 16, symbol B); type: in vivo, Japanese bulrush (Schoenoplectus juncoides); conditions: 320 g/ha applied herbicide
In short: as §1

oval-leafed pondweed = experiment: Test Example 1: herbicidal activity, application before weed generation under submerged conditions (Table 16, symbol C); type: in vivo, oval-leafed pondweed (Monochoria vaginalis); conditions: 320 g/ha applied herbicide
In short: as §1

barnyard grass [1] = experiment: Test Example 3: herbicidal effect by foliage application, Wagner pot (Table 18, symbol H); type: in vivo, barnyard grass (Echinochloa crus-galli); conditions: 320 g/ha
In short: (§2)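 Plants were sown in alluvial soil held under 0.1–0.5 cm standing water and grown 14 days in a greenhouse at 25–30 °C. An emulsifiable formulation, water-diluted to the set dose, was then sprayed onto the foliage, and effects were scored three weeks later using previously defined criteria.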

Chinese sprangletop = experiment: Test Example 3: herbicidal effect by foliage application, Wagner pot (Table 18, symbol D); type: in vivo, chinese sprangletop (Leptochloa chinensis); conditions: 320 g/ha
In short: as §2

rice flat sedge = experiment: Test Example 3: herbicidal effect by foliage application, Wagner pot (Table 18, symbol E); type: in vivo, rice flat sedge (Cyperus iria); conditions: 320 g/ha
In short: as §2

southern crabgrass [2] = experiment: Test Example 4: herbicidal effect by soil treatment (Table 19, symbol F); type: in vivo, southern crabgrass (Digitaria ciliaris); conditions: amount of applied herbicide 320 g/ha
In short: (§3)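 Step 1: sow seeds in sterilized diluvial soil, cover ~1.5 cm. Step 2: spray diluted emulsion onto soil surface at predetermined rate. Step 3: greenhouse, 25–30° C, three weeks. Step 4: grade effect on each plant by earlier criteria.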

green foxtail [3] = experiment: Test Example 4: herbicidal effect by soil treatment (Table 19, symbol G); type: in vivo, green foxtail (Setaria viridis); conditions: amount of applied herbicide 320 g/ha
In short: as §3

barnyard grass [4] = experiment: Test Example 4: herbicidal effect by soil treatment (Table 19, symbol H); type: in vivo, barnyard grass (Echinochloa crus-galli); conditions: amount of applied herbicide 320 g/ha
In short: as §3

wild oat [5] = experiment: Test Example 4: herbicidal effect by soil treatment (Table 19, symbol I); type: in vivo, wild oat (Avena fatua); conditions: amount of applied herbicide 320 g/ha
In short: as §3

blackgrass [6] = experiment: Test Example 4: herbicidal effect by soil treatment (Table 19, symbol J); type: in vivo, blackgrass (Alopecurus myosuroides); conditions: amount of applied herbicide 320 g/ha
In short: as §3

Italian ryegrass [7] = experiment: Test Example 4: herbicidal effect by soil treatment (Table 19, symbol K); type: in vivo, Italian ryegrass (Lolium multiflorum); conditions: amount of applied herbicide 320 g/ha
In short: as §3

windgrass [8] = experiment: Test Example 4: herbicidal effect by soil treatment (Table 19, symbol L); type: in vivo, windgrass (Apera spica-venti); conditions: amount of applied herbicide 320 g/ha
In short: as §3

velvetleaf [9] = experiment: Test Example 4: herbicidal effect by soil treatment (Table 19, symbol M); type: in vivo, velvetleaf (Abutilon theophrasti); conditions: amount of applied herbicide 320 g/ha
In short: as §3

redroot pigweed [10] = experiment: Test Example 4: herbicidal effect by soil treatment (Table 19, symbol N); type: in vivo, redroot pigweed (Amaranthus retroflexus); conditions: amount of applied herbicide 320 g/ha
In short: as §3

lambsquarters [11] = experiment: Test Example 4: herbicidal effect by soil treatment (Table 19, symbol O); type: in vivo, lambsquarters (Chenopodium album); conditions: amount of applied herbicide 320 g/ha
In short: as §3

chickweed [12] = experiment: Test Example 4: herbicidal effect by soil treatment (Table 19, symbol P); type: in vivo, common chickweed (Stellaria media); conditions: amount of applied herbicide 320 g/ha
In short: as §3

false cleavers [13] = experiment: Test Example 4: herbicidal effect by soil treatment (Table 19, symbol Q); type: in vivo, false cleavers (Galium spurium); conditions: amount of applied herbicide 320 g/ha
In short: as §3

persian speedwell [14] = experiment: Test Example 4: herbicidal effect by soil treatment (Table 19, symbol R); type: in vivo, Persian speedwell (Veronica persica); conditions: amount of applied herbicide 320 g/ha
In short: as §3

southern crabgrass [15] = experiment: Test Example 5: herbicidal effect by foliage application, plastic box (Table 20, symbol F); type: in vivo, southern crabgrass (Digitaria ciliaris); conditions: foliage application, 320 g/ha, three weeks after application
In short: (§4)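 Foliar spray test: emulsion formulation diluted in water to a set application rate, sprayed onto 14-day-old plants raised in diluvial soil at 25° C to 30° C under glass. Both herbicidal effect and crop effect rated visually three weeks later.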

green foxtail [16] = experiment: Test Example 5: herbicidal effect by foliage application, plastic box (Table 20, symbol G); type: in vivo, green foxtail (Setaria viridis); conditions: foliage application, 320 g/ha, three weeks after application
In short: as §4

barnyard grass [17] = experiment: Test Example 5: herbicidal effect by foliage application, plastic box (Table 20, symbol H); type: in vivo, barnyard grass (Echinochloa crus-galli); conditions: foliage application, 320 g/ha, three weeks after application
In short: as §4

wild oat [18] = experiment: Test Example 5: herbicidal effect by foliage application, plastic box (Table 20, symbol I); type: in vivo, wild oat (Avena fatua); conditions: foliage application, 320 g/ha, three weeks after application
In short: as §4

blackgrass [19] = experiment: Test Example 5: herbicidal effect by foliage application, plastic box (Table 20, symbol J); type: in vivo, blackgrass (Alopecurus myosuroides); conditions: foliage application, 320 g/ha, three weeks after application
In short: as §4

Italian ryegrass [20] = experiment: Test Example 5: herbicidal effect by foliage application, plastic box (Table 20, symbol K); type: in vivo, Italian ryegrass (Lolium multiflorum); conditions: foliage application, 320 g/ha, three weeks after application
In short: as §4

windgrass [21] = experiment: Test Example 5: herbicidal effect by foliage application, plastic box (Table 20, symbol L); type: in vivo, windgrass (Apera spica-venti); conditions: foliage application, 320 g/ha, three weeks after application
In short: as §4

velvetleaf [22] = experiment: Test Example 5: herbicidal effect by foliage application, plastic box (Table 20, symbol M); type: in vivo, velvetleaf (Abutilon theophrasti); conditions: foliage application, 320 g/ha, three weeks after application
In short: as §4

redroot pigweed [23] = experiment: Test Example 5: herbicidal effect by foliage application, plastic box (Table 20, symbol N); type: in vivo, redroot pigweed (Amaranthus retroflexus); conditions: foliage application, 320 g/ha, three weeks after application
In short: as §4

lambsquarters [24] = experiment: Test Example 5: herbicidal effect by foliage application, plastic box (Table 20, symbol O); type: in vivo, lambsquarters (Chenopodium album); conditions: foliage application, 320 g/ha, three weeks after application
In short: as §4

chickweed [25] = experiment: Test Example 5: herbicidal effect by foliage application, plastic box (Table 20, symbol P); type: in vivo, common chickweed (Stellaria media); conditions: foliage application, 320 g/ha, three weeks after application
In short: as §4

false cleavers [26] = experiment: Test Example 5: herbicidal effect by foliage application, plastic box (Table 20, symbol Q); type: in vivo, false cleavers (Galium spurium); conditions: foliage application, 320 g/ha, three weeks after application
In short: as §4

persian speedwell [27] = experiment: Test Example 5: herbicidal effect by foliage application, plastic box (Table 20, symbol R); type: in vivo, Persian speedwell (Veronica persica); conditions: foliage application, 320 g/ha, three weeks after application
In short: as §4

CCCCc1ccc(-c2sc3ccccc3c2-c2c(O)c(C)nn(C)c2=O)cc1 [1-005]
Herbicidal effect on A: late watergrass (grade 0-5) (late watergrass): 2 (Herbicidal rate of 20% or more and less than 40%) | Herbicidal effect on B: Japanese bulrush (grade 0-5) (Japanese bulrush): 0 (Herbicidal rate of 5% or less (almost no effect)) | Herbicidal effect on C: oval-leafed pondweed (grade 0-5) (oval-leafed pondweed): 0 (Herbicidal rate of 5% or less (almost no effect)) | herbicidal effect on H (barnyard grass), rating 0-5 (barnyard grass [1]): 4 (Herbicidal rate of 70% or more and less than 90%) | herbicidal effect on D (Chinese sprangletop), rating 0-5 (Chinese sprangletop): 0 (Herbicidal rate of 5% or less (almost no effect)) | herbicidal effect on E (rice flat sedge), rating 0-5 (rice flat sedge): 5 (Herbicidal rate of 90% or more (almost completely withered)) | herbicidal effect rating, F: southern crabgrass (southern crabgrass [2]): 0 (Herbicidal rate of 5% or less (almost no effect)) | herbicidal effect rating, G: green foxtail (green foxtail [3]): 0 (Herbicidal rate of 5% or less (almost no effect)) | herbicidal effect rating, H: barnyard grass (barnyard grass [4]): 0 (Herbicidal rate of 5% or less (almost no effect)) | herbicidal effect rating, I: wild oat (wild oat [5]): 0 (Herbicidal rate of 5% or less (almost no effect)) | herbicidal effect rating, J: blackgrass (blackgrass [6]): 0 (Herbicidal rate of 5% or less (almost no effect)) | herbicidal effect rating, K: Italian ryegrass (Italian ryegrass [7]): 0 (Herbicidal rate of 5% or less (almost no effect)) | herbicidal effect rating, L: windgrass (windgrass [8]): 0 (Herbicidal rate of 5% or less (almost no effect)) | herbicidal effect rating, M: velvetleaf (velvetleaf [9]): 0 (Herbicidal rate of 5% or less (almost no effect)) | herbicidal effect rating, N: redroot pigweed (redroot pigweed [10]): 0 (Herbicidal rate of 5% or less (almost no effect)) | herbicidal effect rating, O: lambsquarters (lambsquarters [11]): 0 (Herbicidal rate of 5% or less (almost no effect)) | herbicidal effect rating, P: chickweed (chickweed [12]): 0 (Herbicidal rate of 5% or less (almost no effect)) | herbicidal effect rating, Q: false cleavers (false cleavers [13]): 0 (Herbicidal rate of 5% or less (almost no effect)) | herbicidal effect rating, R: persian speedwell (persian speedwell [14]): 4 (Herbicidal rate of 70% or more and less than 90%) | herbicidal effect grade, F: southern crabgrass (southern crabgrass [15]): 0 (Herbicidal rate of 5% or less (almost no effect)) | herbicidal effect grade, G: green foxtail (green foxtail [16]): 0 (Herbicidal rate of 5% or less (almost no effect)) | herbicidal effect grade, H: barnyard grass (barnyard grass [17]): 0 (Herbicidal rate of 5% or less (almost no effect)) | herbicidal effect grade, I: wild oat (wild oat [18]): 0 (Herbicidal rate of 5% or less (almost no effect)) | herbicidal effect grade, J: blackgrass (blackgrass [19]): 0 (Herbicidal rate of 5% or less (almost no effect)) | herbicidal effect grade, K: Italian ryegrass (Italian ryegrass [20]): 0 (Herbicidal rate of 5% or less (almost no effect)) | herbicidal effect grade, L: windgrass (windgrass [21]): 0 (Herbicidal rate of 5% or less (almost no effect)) | herbicidal effect grade, M: velvetleaf (velvetleaf [22]): 3 (Herbicidal rate of 40% or more and less than 70%) | herbicidal effect grade, N: redroot pigweed (redroot pigweed [23]): 4 (Herbicidal rate of 70% or more and less than 90%) | herbicidal effect grade, O: lambsquarters (lambsquarters [24]): 5 (Herbicidal rate of 90% or more (almost completely withered)) | herbicidal effect grade, P: chickweed (chickweed [25]): 5 (Herbicidal rate of 90% or more (almost completely withered)) | herbicidal effect grade, Q: false cleavers (false cleavers [26]): 0 (Herbicidal rate of 5% or less (almost no effect)) | herbicidal effect grade, R: persian speedwell (persian speedwell [27]): 5 (Herbicidal rate of 90% or more (almost completely withered))

COc1ccc(-c2sc3cc(C)ccc3c2-c2c(O)c(C)nn(C)c2=O)cc1 [3-051]
herbicidal effect on barnyard grass (H) (barnyard grass [1]): 1 (Herbicidal rate of 5% or more and less than 20%) | herbicidal effect on Chinese sprangletop (D) (Chinese sprangletop): 0 (Herbicidal rate of 5% or less (almost no effect)) | herbicidal effect on rice flat sedge (E) (rice flat sedge): 3 (Herbicidal rate of 40% or more and less than 70%) | F: southern crabgrass, herbicidal effect grade (southern crabgrass [2]): 0 (Herbicidal rate of 5% or less (almost no effect)) | G: green foxtail, herbicidal effect grade (green foxtail [3]): 0 (Herbicidal rate of 5% or less (almost no effect)) | H: barnyard grass, herbicidal effect grade (barnyard grass [4]): 0 (Herbicidal rate of 5% or less (almost no effect)) | I: wild oat, herbicidal effect grade (wild oat [5]): 0 (Herbicidal rate of 5% or less (almost no effect)) | J: blackgrass, herbicidal effect grade (blackgrass [6]): 0 (Herbicidal rate of 5% or less (almost no effect)) | K: Italian ryegrass, herbicidal effect grade (Italian ryegrass [7]): 0 (Herbicidal rate of 5% or less (almost no effect)) | L: windgrass, herbicidal effect grade (windgrass [8]): 0 (Herbicidal rate of 5% or less (almost no effect)) | M: velvetleaf, herbicidal effect grade (velvetleaf [9]): 0 (Herbicidal rate of 5% or less (almost no effect)) | N: redroot pigweed, herbicidal effect grade (redroot pigweed [10]): 0 (Herbicidal rate of 5% or less (almost no effect)) | O: lambsquarters, herbicidal effect grade (lambsquarters [11]): 0 (Herbicidal rate of 5% or less (almost no effect)) | P: chickweed, herbicidal effect grade (chickweed [12]): 0 (Herbicidal rate of 5% or less (almost no effect)) | Q: false cleavers, herbicidal effect grade (false cleavers [13]): 0 (Herbicidal rate of 5% or less (almost no effect)) | R: persian speedwell, herbicidal effect grade (persian speedwell [14]): 4 (Herbicidal rate of 70% or more and less than 90%) | F: southern crabgrass, herbicidal effect grade (southern crabgrass [15]): 0 (Herbicidal rate of 5% or less (almost no effect)) | G: green foxtail, herbicidal effect grade (green foxtail [16]): 0 (Herbicidal rate of 5% or less (almost no effect)) | H: barnyard grass, herbicidal effect grade (barnyard grass [17]): 0 (Herbicidal rate of 5% or less (almost no effect)) | I: wild oat, herbicidal effect grade (wild oat [18]): 0 (Herbicidal rate of 5% or less (almost no effect)) | J: blackgrass, herbicidal effect grade (blackgrass [19]): 0 (Herbicidal rate of 5% or less (almost no effect)) | K: Italian ryegrass, herbicidal effect grade (Italian ryegrass [20]): 1 (Herbicidal rate of 5% or more and less than 20%) | L: windgrass, herbicidal effect grade (windgrass [21]): 0 (Herbicidal rate of 5% or less (almost no effect)) | M: velvetleaf, herbicidal effect grade (velvetleaf [22]): 0 (Herbicidal rate of 5% or less (almost no effect)) | N: redroot pigweed, herbicidal effect grade (redroot pigweed [23]): 0 (Herbicidal rate of 5% or less (almost no effect)) | O: lambsquarters, herbicidal effect grade (lambsquarters [24]): 0 (Herbicidal rate of 5% or less (almost no effect)) | P: chickweed, herbicidal effect grade (chickweed [25]): 4 (Herbicidal rate of 70% or more and less than 90%) | Q: false cleavers, herbicidal effect grade (false cleavers [26]): 0 (Herbicidal rate of 5% or less (almost no effect)) | R: persian speedwell, herbicidal effect grade (persian speedwell [27]): 5 (Herbicidal rate of 90% or more (almost completely withered))
